Bounds are passed on as bounds.

T1 sequence (P56817 46-501): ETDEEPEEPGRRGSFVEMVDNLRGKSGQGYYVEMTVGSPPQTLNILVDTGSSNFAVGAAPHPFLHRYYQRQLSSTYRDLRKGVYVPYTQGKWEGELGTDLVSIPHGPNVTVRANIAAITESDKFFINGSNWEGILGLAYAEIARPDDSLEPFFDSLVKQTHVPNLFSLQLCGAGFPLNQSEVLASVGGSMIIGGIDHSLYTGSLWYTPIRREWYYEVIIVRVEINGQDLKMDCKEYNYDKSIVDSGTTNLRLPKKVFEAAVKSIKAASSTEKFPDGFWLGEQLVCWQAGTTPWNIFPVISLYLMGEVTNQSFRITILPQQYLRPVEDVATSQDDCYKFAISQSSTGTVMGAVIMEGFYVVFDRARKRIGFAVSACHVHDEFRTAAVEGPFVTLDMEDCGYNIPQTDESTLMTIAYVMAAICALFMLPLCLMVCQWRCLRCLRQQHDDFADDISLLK

The first assay concerns the target T1, Recombinant human BACE-1 (Homo sapiens, UniProt P56817).
T1 construct: purchased R&D Systems
The assay is described as follows: Assay of β-secretase-inhibiting activity.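 Further: substrate is a peptide carrying biotin and europium cryptate, after the enzyme reaction, Streptavidin-XL665 is added and incubated 1 h at 30 °C before fluorescence reading.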 The assay is classed as biochemical. The note with it: Recombinant human BACE-1 7.4 nM, substrate peptide 18 nM, pH 5.0, 30° C., 3 hours; Table 139; read-out: IC50.
As for `COc1nc(Nc2ccc(F)c([C@]3(C)CCSC(N)=N3)c2)nc(OC)n1` [Compound 126], the IC50 is 2140 nM. On the same count and under the same terms, then `C[C@@]1(c2cc(NC(=O)c3cnc(-c4ccco4)cn3)ccc2F)CCSC(N)=N1` [Compound 136], with 110 nM; and `Cc1ccc(NC(=O)c2cnc(Cl)cn2)cc1C1(C)CCSC(N)=N1` (stereo not drawn) [Compound 141], with 120 nM; and `C[C@@]1(c2cc(NC(=O)COc3ccccc3O)ccc2F)CCSC(N)=N1` [Compound 149], with 9250 nM. For `C[C@@]1(c2cc(NC(=O)CCc3cccc(N)c3)ccc2F)CCSC(N)=N1` [Compound 150], the IC50 was 2480 nM.

For `Cc1cc(SCC(=O)Nc2ccc(F)c([C@]3(C)CCSC(N)=N3)c2)nc(N)n1` [Compound 151], the IC50 came out at 6770 nM. As for `C[C@@]1(c2cc(NC(=O)CCc3ccc(O)c(O)c3)ccc2F)CCSC(N)=N1` [Compound 155], the IC50 stood at 5960 nM. Still for that read-out and setting: then `C[C@@]1(c2cc(NC(=O)CSc3nccc(O)n3)ccc2F)CCSC(N)=N1` [Compound 163], with 6790 nM; and `COCCOCCOc1cnc(C(=O)Nc2ccc(F)c([C@]3(C)CCSC(N)=N3)c2)cn1` [Compound 164], with 80 nM.

Staying with this assay, now noted: Recombinant human BACE-1 7.4 nM, substrate peptide 18 nM, pH 5.0, 30° C., 3 hours; Table 140; read-out: IC50.
For the compound `Cc1nc(C(=O)Nc2cncc([C@]3(C)CCSC(N)=N3)c2)c(C)o1` [Compound 461], the IC50 came to 30 nM. Consider `Cc1cc2cc(NC(=O)c3ccc(OCCO)cn3)cc([C@]3(C)CCSC(N)=N3)c2o1` [Compound 464], for which the IC50 is 430 nM. As for `Cc1cnc(C(=O)Nc2cc([C@]3(C)CCSC(N)=N3)c3oc(C)cc3c2)cn1` [Compound 468], the IC50 was found to be 20 nM.

For the compound `COc1cc(C(=O)Nc2cncc([C@]3(C)CCSC(N)=N3)c2)n(C)n1` [Compound 473], the IC50 is 170 nM. On to `Cn1nc(Cl)cc1C(=O)Nc1cncc([C@]2(C)CCSC(N)=N2)c1` [Compound 478], for which the IC50 turned out to be 80 nM.

In the case of `Cc1nnsc1C(=O)Nc1ccc(F)c([C@]2(C)CCSC(N)=N2)c1` [Compound 481], the IC50 was 50 nM. For `C[C@@]1(c2cc(NC(=O)c3nc4cnccc4[nH]3)ccc2F)CCSC(N)=N1` [Compound 484], the IC50 came to 290 nM.

Take `Cc1cc(C(=O)Nc2ccc(F)c([C@]3(C)CCSC(N)=N3)c2)nn1C` [Compound 488]: the IC50 was found to be 260 nM.

Staying with this assay, now noted: Recombinant human BACE-1 7.4 nM, substrate peptide 18 nM, pH 5.0, 30° C., 3 hours; time-resolved fluorescence ratio 665/620; read-out: IC50 values (50% inhibitory concentration against the enzymatic activity).
Take `CC#CCNc1cnc(C(=O)Nc2ccc(F)c([C@]3(C)CCSC(N)=N3)c2)cn1` [Compound 120]: the IC50 is not above 1000 nM. With `C[C@@]1(c2cc(NC(=O)c3cnc(OCC4CC4)cn3)ccc2F)CCSC(N)=N1` [Compound 121], the IC50 is not above 1000 nM.

Regarding `CC#CCNc1cnc(C(=O)Nc2cccc([C@]3(C)CCSC(N)=N3)c2)cn1` [Compound 123], the IC50 is not above 1000 nM.

As to `CCC/C=C/c1cnc(C(=O)Nc2ccc(F)c([C@]3(C)CCSC(N)=N3)c2)cn1` [Compound 124], the IC50 was not above 1000 nM. For the compound `CC(C)=NOc1cnc(C(=O)Nc2ccc(F)c([C@]3(C)CCSC(N)=N3)c2)cn1` [Compound 125], the IC50 is not above 1000 nM. With `C[C@@]1(c2cc(NC(=O)c3cnc(OCC(F)F)cn3)ccc2F)CCSC(N)=N1` [Compound 131], the IC50 is not above 1000 nM. Consider `C[C@@]1(c2cc(NC(=O)c3cnc(OCCF)cn3)ccc2F)CCSC(N)=N1` [Compound 132], for which the IC50 was not above 1000 nM. Consider `C#CCOc1cnc(C(=O)Nc2ccc(F)c([C@]3(C)CCSC(N)=N3)c2)cn1` [Compound 133], for which the IC50 was not above 1000 nM. Consider `CCOc1cnc(C(=O)Nc2ccc(F)c([C@]3(C)CCSC(N)=N3)c2)cn1` [Compound 134], for which the IC50 was not above 1000 nM.

Take `C[C@@]1(c2cc(NC(=O)c3ccc(OC(F)F)cn3)ccc2F)CCSC(N)=N1` [Compound 135]: the IC50 is not above 1000 nM. As to `CC#CCOc1cnc(C(=O)Nc2ccc(C)c(C3(C)CCSC(N)=N3)c2)cn1` (stereo not drawn) [Compound 142], the IC50 is not above 1000 nM. Regarding `Cc1cnc(C(=O)Nc2cc(F)c(F)c(C3(C)CCSC(N)=N3)c2)cn1` (stereo not drawn) [Compound 143], the IC50 was not above 1000 nM. Take `CC1(c2cc(NC(=O)c3cnc(Cl)cn3)cc(F)c2F)CCSC(N)=N1` (stereo not drawn) [Compound 144]: the IC50 was not above 1000 nM. On to `CC#CCOc1cnc(C(=O)Nc2cc(F)c(F)c(C3(C)CCSC(N)=N3)c2)cn1` (stereo not drawn) [Compound 145], for which the IC50 is not above 1000 nM.

On to `C[C@@]1(c2cncc(NC(=O)c3ccc(Cl)cn3)c2)CCSC(N)=N1` [Compound 152], for which the IC50 was not above 1000 nM. Same read-out and setting: then `C[C@@]1(c2cc(NC(=O)c3nccnc3C(N)=O)ccc2F)CCSC(N)=N1` [Compound 157], with not above 1000 nM; and `C[C@@]1(c2cc(NC(=O)c3cnc(-c4ccoc4)cn3)ccc2F)CCSC(N)=N1` [Compound 158], with not above 1000 nM; and `C[C@@]1(c2cc(NC(=O)c3cnc(/C=C/CO)cn3)ccc2F)CCSC(N)=N1` [Compound 162], with not above 1000 nM. For `C[C@@]1(c2cc(NC(=O)c3ncc(OCC(F)(F)F)nc3N)ccc2F)CCSC(N)=N1` [Compound 165], the IC50 is not above 1000 nM. Same read-out and setting: under `Cc1nc(C(=O)Nc2ccc(F)c([C@]3(C)CCSC(N)=N3)c2)co1` [Compound 462] stands not above 1000 nM; under `Cc1cc(C(=O)Nc2ccc(F)c([C@]3(C)CCSC(N)=N3)c2)n(C)n1` [Compound 463], not above 1000 nM; under `COCCOc1cnc(C(=O)Nc2cc([C@]3(C)CCSC(N)=N3)c3oc(C)cc3c2)cn1` [Compound 465], not above 1000 nM. The same measure, in the same setting: then `Cc1cc(C(=O)Nc2cncc([C@]3(C)CCSC(N)=N3)c2)n(C(C)(C)C)n1` [Compound 466], with not above 1000 nM; and `C[C@@]1(c2cc(NC(=O)c3coc(Cl)n3)ccc2F)CCSC(N)=N1` [Compound 467], with not above 1000 nM; and `CC#CCOc1cnc(C(=O)Nc2cc([C@]3(C)CCSC(N)=N3)c3oc(C)cc3c2)cn1` [Compound 469], with not above 1000 nM. With `C[C@@]1(c2cc(NC(=O)c3coc(CCl)n3)ccc2F)CCSC(N)=N1` [Compound 470], the IC50 was not above 1000 nM.

On to `Cc1nc(C(=O)Nc2ccc(F)c([C@]3(C)CCSC(N)=N3)c2)c(C(F)(F)F)o1` [Compound 471], for which the IC50 was not above 1000 nM. Turning to `C[C@@]1(c2cc(NC(=O)C3=NNC(=O)CC3)ccc2F)CCSC(N)=N1` [Compound 472], the IC50 was not above 1000 nM. With `Cc1cc(C(=O)Nc2cncc([C@]3(C)CCSC(N)=N3)c2)on1` [Compound 474], the IC50 is not above 1000 nM. Consider `CN1N=C(C(=O)Nc2ccc(F)c([C@]3(C)CCSC(N)=N3)c2)CCC1=O` [Compound 475], for which the IC50 was not above 1000 nM.

Regarding `Cc1cc(C(=O)Nc2cncc([C@]3(C)CCSC(N)=N3)c2)n(C)n1` [Compound 476], the IC50 is not above 1000 nM. Same read-out and setting: then `CCN1N=C(C(=O)Nc2ccc(F)c([C@]3(C)CCSC(N)=N3)c2)CCC1=O` [Compound 477], with not above 1000 nM; and `CCn1nc(C)cc1C(=O)Nc1cncc([C@]2(C)CCSC(N)=N2)c1` [Compound 479], with not above 1000 nM. Turning to `Cc1cc(C(=O)Nc2cncc([C@]3(C)CCSC(N)=N3)c2)c(C)o1` [Compound 482], the IC50 was not above 1000 nM.

In the case of `Cc1ccc(C(=O)Nc2cncc([C@]3(C)CCSC(N)=N3)c2)s1` [Compound 485], the IC50 was not above 1000 nM. For the compound `Cc1csc(C(=O)Nc2cncc([C@]3(C)CCSC(N)=N3)c2)c1` [Compound 486], the IC50 is not above 1000 nM. For `Cc1ccsc1C(=O)Nc1cncc([C@]2(C)CCSC(N)=N2)c1` [Compound 487], the IC50 was not above 1000 nM.
